Experimental data as given in US20260206745A1, “DOUBLE ENCAPSULATED NANOCOMPOSITE FOR STAGED DELIVERY OF ACTIVE INGREDIENT(S), AND A METHOD OF PRODUCING THEREOF” (COUNCIL OF SCIENTIFIC AND INDUSTRIAL RESEARCH, priority 2022, published 2026).

Legend:
[1] = In vitro atrazine release from nanoformulations (dialysis); assay type: physicochemical; settings: after 94 hours, DI water, dialysis 12 kDa
Method: B) In vitro atrazine release from nanoformulations: A dialysis tubing (MWCO 12 kDa, Sigma-Aldrich, St. Louis, USA) was taken with nfATZ (2 mg), where the total amount of ATZ loaded was 200 μg. In another dialysis tubing, 200 μg of ATZ (bulk form) dispersed in 2 ml of distilled water (DW) with 0.1% w/v sodium azide was taken. These dialysis bags were kept in 18 mL of DW containing sodium azide, and the release studies were done at 37° C. in a shaker bath (SW23, Julabo, Seelbach, Germany) at 50 rpm. At regular intervals, 1 mL of DW was withdrawn and replaced with 1 mL of fresh DW to maintain the sink conditions. The withdrawn DW was analyzed for the amount of ATZ released using a UV-visible spectrophotometer at λmax of 222 nm. […] After 94 hours of release studies, 60% of ATZ was released in the case of plain ATZ, while 22% of ATZ was released from the nfATZ. […] From this observation, it is noted that the another […] of release from the nano-formulation can extend up to 30 days. From these studies, inventors concluded that the nanoformulations is the best choice to control the weeds for an extended period, which can be manipulated as desired by changing concentration of EC and ATZ.

[2] = Thermal gravimetric analysis (TGA); assay type: physicochemical; settings: TGA under N2, 10° C. min^−1
From the text: A) Characterization: The morphology and size distribution of the nf and nfATZ were observed using a field emission scanning electron microscope (FE-SEM; Nova NanoSEM 450, FEI, Hillsboro, USA) and a high-resolution transmission electron microscope (HR-TEM; Tecnai TF20, 200 kV FEG, FEI, Hillsboro, USA). The ζ-potential and particle size distribution of nf and nfATZ were estimated using a PALS zeta potential analyzer (Brookhaven Instruments, Holtsville, USA). The material structural analysis was determined using a Fourier transform infrared spectrometer (FTIR; PerkinElmer, Waltham, USA) and X-ray diffractometer (XRD; PANalytical X'Pert PRO, Malvern Panalytical, Malvern, UK). The interaction between ATZ and EC was analyzed using differential scanning calorimetry (DSC). […]
The nf depicts a shift in Tg from 121° C. to 131º° C. […] The nfATZ recorded a Tg at 125° C.; a shift in the Tg from 131° C. […] Two-stage decomposition temperatures were recorded for pristine EC, 50-95° C., due to loss of moisture (weight loss, 2.9%) and 150-380° C. due to fragmentation of chemical bonds (weight loss, 85%). […] Further, it is observed that nfATZ recorded a broad first derivative peak for the weight loss, which may be due to the merging of two first derivative peaks, one for ATZ and the other for EC.

Question: For CCNc1nc(Cl)nc(NC(C)C)n1 [plain ATZ, Atrazine], which ATZ released [1] is on record?
Answer: 60%

Question: And the maximum degradation temperature [2]?
Answer: 230 °C
